Data taken from paper PMC7803792 (Slas Discovery, 2021).
Entries after “also recorded” stand apart in the source; their conditions may differ.

What was measured:
[1] = biological target: T1, SARS-CoV-2 nsp10-nsp16 complex (Severe acute respiratory syndrome coronavirus 2, UniProt P0DTD1); experiment: FP-based RNA displacement assay; type: binding; conditions: concentration for 50% displacement of 30 nM FAM-RNA from 0.5 µM nsp10-nsp16 complex
[2] = biological target: T1, SARS-CoV-2 nsp10-nsp16 complex; experiment: Isothermal titration calorimetry; type: binding
[3] = biological target: SARS-CoV nsp10-nsp16 complex; conditions: cited from earlier work
[4] = biological target: T1, SARS-CoV-2 nsp10-nsp16 complex; conditions: FP, 30 nM FAM-RNA, maximum FP signal

Row | Molecule | Kdisp (K displacement) [1] | also measured
1 | Nc1nc2c(ncn2[C@@H]2O[C@H](COP(=O)(O)OP(=O)(O)OP(=O)(O)OC[C@H]3O[C@@H](n4cnc5c(N)ncnc54)[C@H](O)[C@@H]3O)[C@@H](O)[C@H]2O)c(=O)[nH]1 [GpppA, G(5′)ppp(5′)A] | unable to displace; also recorded: did not disrupt; also recorded: no RNA displacement | 
2 | Cn1c[n+]([C@@H]2O[C@H](COP(=O)(O)OP(=O)(O)OP(=O)(O)OC[C@H]3O[C@@H](n4cnc5c(N)ncnc54)[C@H](O)[C@@H]3O)[C@@H](O)[C@H]2O)c2nc(N)[nH]c(=O)c21 [N7-meGpppA, m7G(5′)ppp(5′)A] | 20 ± 6 µM | 
3 | C[S+](CC[C@H](N)C(=O)[O-])C[C@H]1O[C@@H](n2cnc3c(N)ncnc32)[C@H](O)[C@@H]1O (stereo partly drawn) [SAM, S-adenosyl-L-methionine] |  | Kd [2]: 3.4 ± 1.5 µM; Kd [3]: 5.59 ± 1.15 µM
4 | 5′ N7-meGpppACCCCC-FAM 3′ |  | Bmax [4]: 270 ± 5 mP
5 | Nc1nc2c(ncn2[C@@H]2O[C@H](COP(=O)(O)OP(=O)(O)OP(=O)(O)OC[C@H]3O[C@@H](n4cnc5c(=O)[nH]c(N)nc54)[C@H](O)[C@@H]3O)[C@@H](O)[C@H]2O)c(=O)[nH]1 [GpppG, G(5′)ppp(5′)G] | unable to displace; also recorded: did not disrupt; also recorded: no RNA displacement | 
6 | Cn1c[n+]([C@@H]2O[C@H](COP(=O)(O)OP(=O)(O)OP(=O)(O)OC[C@H]3O[C@@H](n4cnc5c(=O)[nH]c(N)nc54)[C@H](O)[C@@H]3O)[C@@H](O)[C@H]2O)c2nc(N)[nH]c(=O)c21 [N7-meGpppG, m7G(5′)ppp(5′G] | 17 ± 3 µM | 
